Consider nine compounds from patent publication US8168669B2, “Therapeutic agent for inflammatory bowel disease and TNF-α production inhibitor” (Ajinomoto Co., Inc., priority 2005, dated 2012).

Holding throughout (assay type): in vivo, mouse
For assay [1], the system named is colitis in Scid mice injected with cells of IL-10 deficient Balb/c mice. The assay is described as follows: Therapeutic effect on inflammatory bowel disease: colon weight in cell-transfer colitis mice fed experimental diet. To be noted: three weeks after cell transfer. On the set-up: Colon weight Mean: unit not given here. As for the experimental part: Balb/c background IL-10 deficient mice were established from C57BL/6 background IL-10 deficient mice by back-crossing for seventh generations. […] Spleen, mesenteric lymph nodes and sacral lymph nodes were collected from the IL-10 gene-deficient Balb/c mice (male) which had developed the colitis detected by observing the diarrhea symptoms. After preparing single cell suspensions, the cells at about 1×10^7 were injected intraperitoneally to Scid mice which were immunodeficiency mice (hereinafter the Scid mouse injected IP was referred to as an “experiment mouse”). Subsequently, a chow was changed to an experimental diet. At a time point three weeks after cell transfer, the mice were killed, the colon was collected, the intestinal contents were washed out, and its weight was measured. A percentage of inhibiting a weight gain of the colon was calculated by the following formula. Percentage of inhibiting a weight gain of colon=[1−(Colon weight in target group−Colon weight in cell transfer group)/(Colon weight in standard chow group−Colon weight in cell transfer group)]×100(%)
An amino acid mixture A is composed of the following amino acids (% by weight is represented in terms of free amino acid).

The test system of a further assay is TNF-α mRNA. Description: Inhibitory effect on TNF-α production: quantitative RT-PCR of colon TNF-α mRNA. The settings on record: colon after three weeks. As for the experimental part:
(§1) The experimental diet obtained by mixing the amino acids shown in Table 6 with the standard chow was given to the experiment mice, and after three weeks, the colon was removed. A colon sample was homogenized with 500 μL of Isogen (Nippon Gene). The homogenate mixed with 100 μL, of chloroform was centrifuged at 15,000 rpm at 4° C. and an aqueous layer was collected. An equivalent amount of 2-propanol was added thereto, which was then centrifuged at 15,000 rpm at 4° C. A resulting pellet was washed with 70% (v/v) ethanol, dried in air and dissolved in water treated with DEPC.
All reagents used were from Invitrogen. 0.5 μg Of total RNA and 0.5 μg of oligo (dT) were dissolved in 12 μL of DEPC-treated water, heated at 70° C. for 10 minutes, and cooled on ice for one minute. Subsequently, 4 μL of 5×1st strand buffer, 1 μL of 10 mM dNTP mix and 2 μL of 100 mM DTT were added thereto. The mixture was reacted at 42° C. for 5 minutes. 1 μL (200 U) of SuperScriptII was added, and the mixture was reacted at 42° C. for 50 minutes and 70° C. for 15 minutes.
(§2) A gene expression assay based on PCR was performed using SYBR Green PCR Master Mix (Applied Biosystems) and ABI PRISM 7700 System. SYBR Green PCR Master Mix comprises SYBR Green and heat resistant DNA polymerase, and detects fluorescence generated by specifically binding SYBR Green to a double strand DNA amplified by PCR using ABI PRISM 7700 System. Gene expression amounts of the samples can be compared by comparing the numbers of PCR cycles at which a significant fluorescence signal is detected for the first time. The cDNA corresponding to 10 ng of total RNA was used as a template of the quantitative PCR, and n=2 or more per sample of measurements were performed. A forward primer and a reverse primer at each 7.5 pmol of each gene were added to 7.5 μL of SYBR Green PCR Master Mix (Applied Biosystems), and the total volume was made to be 15 μL with water. The PCR was performed by 40 cycles of the reaction at 95° C. for 10 seconds, 60° C. for 30 seconds and 72° C. for 30 seconds after reacting at 95° C. for 10 minutes. The sequences of the primers used for the quantitative RT-PCR are as follows.
An inhibitory rate of TNF-α mRNA expression was calculated from the following formula. Inhibitory rate of TNF-α mRNA expression=[1−Relative amount of TNF-α mRNA expression in target group−Relative amount of TNF-α mRNA expression in cell transfer group)/(Relative amount of TNF-α mRNA expression in standard chow group−Relative amount of TNF-α mRNA expression in cell transfer group)]×100(%)

In the next assay the test system is Reg3γ mRNA. The assay is described as follows: Quantitative RT-PCR of colon Reg3γ mRNA. The settings on record: 5% in standard chow, colon after three weeks. As for the experimental part:
as §1
(§3) All reagents used were from Invitrogen. […]
as §2, with “A forward primer and a reverse primer at each 7.5 pmol of each gene were added to 7.5 μL of SYBR Green PCR Master Mix (Applied Biosystems), and the total volume was made to be 15 μL with water. The PCR was performed by 40 cycles of the reaction at 95° C. for 10 seconds, 60° C. for 30 seconds and 72° C. for 30 seconds after reacting at 95° C. for 10 minutes.” left out, “follows. […]” for “follows.”

A further assay concerns Groα mRNA. Description: Quantitative RT-PCR of colon Groα mRNA. The settings on record: 5% in standard chow, colon after three weeks. As for the experimental part:
as §1, §3
as §2, with “A forward primer and a reverse primer at each 7.5 pmol of each gene were added to 7.5 μL of SYBR Green PCR Master Mix (Applied Biosystems), and the total volume was made to be 15 μL with water. The PCR was performed by 40 cycles of the reaction at 95° C. for 10 seconds, 60° C. for 30 seconds and 72° C. for 30 seconds after reacting at 95° C. for 10 minutes.” left out, “follows. […]” for “follows.”

Where [2] appears, read: Mus musculus, po, 504 h, 5% in standard chow, read-out: Rate of inhibiting weight gain of colon (%).

`NC(=O)CC[C@H](N)C(=O)O` [Example 1, glutamine]: in assay [1] (5% in standard chow), the “Colon weight Mean” value worked out at 530.5. Further, in assay [1] (setting [2]), the inhibition in vivo at 5 % is 22.5%.

For the compound `NCCCC[C@H](N)C(=O)O` [Example 2, lysine], the “Colon weight Mean” value in assay [1] (5% in standard chow) came out at 392.8. Further, in assay [1] (setting [2]), the inhibition in vivo at 5 % was found to be 48.5%.

Regarding `N[C@@H](Cc1c[nH]cn1)C(=O)O` [Example 3, histidine], the “Colon weight Mean” value in assay [1] (5% in standard chow) was determined as 429.0. For the same compound, the inhibition in vivo at 5 % in assay [1] (setting [2]) amounted to 37.8%. The “Inhibitory rate of TNF-α mRNA expression (%)” value with TNF-α mRNA (5% in standard chow) amounted to 54%. For the same compound, in the assay with Reg3γ mRNA, the “Inhibitory rate of Reg3γ mRNA Expression (%)” value is listed as 84%. The “Inhibitory rate of Groα mRNA Expression (%)” value in the assay on Groα mRNA is 70%.

Regarding `N[C@@H](CS)C(=O)O` [Example 4, cysteine], in assay [1] (setting [2]), the inhibition in vivo at 5 % was found to be 42.1%.

As for `NCC(=O)O` [Example 5, glycine], in assay [1] (5% in standard chow), the “Colon weight Mean” value is recorded as 437.1 and the “Rate of inhibiting weight gain of colon (%)” value is 37.4%.

Consider `N[C@@H](Cc1c[nH]c2ccccc12)C(=O)O` [Example 6, tryptophan], for which the “Colon weight Mean” value in assay [1] (2% in standard chow) was 425.6. Also, in assay [1] (Mus musculus, po, 504 h, 2% in standard chow, read-out: Rate of inhibiting weight gain of colon (%)), the inhibition in vivo at 2 % was found to be 41.9%. Besides, the inhibition in vivo at 5 % in assay [1] (setting [2]) came to 92.7%. Besides, the “Inhibitory rate of TNF-α mRNA expression (%)” value in the assay with TNF-α mRNA (2% in standard chow) is listed as 33%; with TNF-α mRNA (5% in standard chow), 49%.

For the compound `CSCC[C@H](N)C(=O)O` [Example 7, methionine], the “Colon weight Mean” value in assay [1] (5% in standard chow) is 307.7. Also, in assay [1] (setting [2]), the inhibition in vivo at 5 % was found to be 73.1%.

Take `N[C@@H](Cc1ccccc1)C(=O)O` [Example 12, phenylalanine]: in assay [1] (5% in standard chow), the “Colon weight Mean” value worked out at 392.8. In addition, the inhibition in vivo at 5 % in assay [1] (setting [2]) was 48.5%. The “Inhibitory rate of TNF-α mRNA expression (%)” value with TNF-α mRNA (5% in standard chow) is recorded as 84%.

In the case of `C[C@@H](O)[C@H](N)C(=O)O` [Example 13, threonine], the “Colon weight Mean” value in assay [1] (5% in standard chow) is on record as 468.2. For the same compound, in assay [1] (setting [2]), the inhibition in vivo at 5 % came to 28.8%.
